In ChEMBL document CHEMBL1123613, “2,4-Diamino-6,7-dimethoxyquinazolines. 3. 2-(4-Heterocyclylpiperazin-1-yl) derivatives as alpha 1-adrenoceptor antagonists and antihypertensive agents” (J Med Chem, 1987):
Activity calls are given as the source filed them. The calls are words filed in the database; no cut-off is given here.

Tests used:
[1] = tested on: Rattus norvegicus; assay: Antihypertensive activity was determined by percent reduction in blood pressure after 1 hr upon peroral administration of 5 mg/kg dose in spontaneously hypertensive rats(SHR).; type: functional; conditions: route oral
[2] = biological target: T1, Adrenergic receptor alpha-2 (Rattus norvegicus) (UniProt P22086+P19328+P22909); assay: Percent displacement of [3H]clonidine from alpha-2-adrenoceptor in rat brain homogenates at 10E-6 M; Activity of less than 50%.; type: tissue-based
[3] = biological target: T2, Adrenergic receptor alpha-1 (Rattus norvegicus, UniProt P15823+P23944+P43140); assay: Binding affinity against alpha-1-adrenoceptor in rat brain homogenates [3H]-prazosin displacement.; type: tissue-based
T2 sequence (P15823 whole entry): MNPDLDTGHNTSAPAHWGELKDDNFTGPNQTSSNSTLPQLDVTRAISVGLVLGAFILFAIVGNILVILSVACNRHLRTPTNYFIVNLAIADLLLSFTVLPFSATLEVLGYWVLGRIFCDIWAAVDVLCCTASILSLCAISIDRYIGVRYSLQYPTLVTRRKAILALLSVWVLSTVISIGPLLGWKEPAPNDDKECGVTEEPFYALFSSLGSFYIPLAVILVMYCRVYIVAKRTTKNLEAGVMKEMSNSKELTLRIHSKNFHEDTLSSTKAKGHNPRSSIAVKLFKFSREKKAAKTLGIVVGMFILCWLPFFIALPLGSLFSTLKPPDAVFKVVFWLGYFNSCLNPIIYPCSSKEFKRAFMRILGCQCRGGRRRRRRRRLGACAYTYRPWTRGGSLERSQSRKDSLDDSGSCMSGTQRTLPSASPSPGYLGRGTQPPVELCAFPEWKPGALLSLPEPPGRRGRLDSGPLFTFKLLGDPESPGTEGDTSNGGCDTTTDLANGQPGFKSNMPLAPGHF
T2 sequence (P23944 whole entry): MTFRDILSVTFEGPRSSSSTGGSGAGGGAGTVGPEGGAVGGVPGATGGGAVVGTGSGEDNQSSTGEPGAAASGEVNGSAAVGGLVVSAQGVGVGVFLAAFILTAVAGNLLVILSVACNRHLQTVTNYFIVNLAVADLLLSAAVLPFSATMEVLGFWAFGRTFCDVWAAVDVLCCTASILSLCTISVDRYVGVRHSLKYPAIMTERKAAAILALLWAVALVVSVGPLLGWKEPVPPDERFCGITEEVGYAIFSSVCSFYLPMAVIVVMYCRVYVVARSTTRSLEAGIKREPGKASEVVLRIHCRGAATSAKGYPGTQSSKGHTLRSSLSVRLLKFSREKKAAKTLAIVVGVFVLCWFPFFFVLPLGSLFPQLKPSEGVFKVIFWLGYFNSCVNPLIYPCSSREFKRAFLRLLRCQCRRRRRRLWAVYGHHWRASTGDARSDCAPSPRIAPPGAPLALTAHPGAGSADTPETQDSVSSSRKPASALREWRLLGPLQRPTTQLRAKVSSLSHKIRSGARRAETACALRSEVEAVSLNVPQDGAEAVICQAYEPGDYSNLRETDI
T2 sequence (P43140 whole entry): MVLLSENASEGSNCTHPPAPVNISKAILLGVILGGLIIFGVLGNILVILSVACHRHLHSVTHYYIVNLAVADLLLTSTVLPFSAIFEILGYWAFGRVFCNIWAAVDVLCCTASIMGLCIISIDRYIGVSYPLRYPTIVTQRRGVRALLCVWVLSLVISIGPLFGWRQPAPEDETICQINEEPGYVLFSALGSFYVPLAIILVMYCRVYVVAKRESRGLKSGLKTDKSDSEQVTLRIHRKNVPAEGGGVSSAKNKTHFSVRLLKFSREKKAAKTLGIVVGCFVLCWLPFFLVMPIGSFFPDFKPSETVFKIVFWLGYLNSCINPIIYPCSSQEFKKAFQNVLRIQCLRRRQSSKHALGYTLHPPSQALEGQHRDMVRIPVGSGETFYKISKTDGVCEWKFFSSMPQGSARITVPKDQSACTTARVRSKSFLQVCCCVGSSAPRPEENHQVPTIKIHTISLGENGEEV

[4] = tested on: Rattus norvegicus; assay: Antihypertensive activity was determined by percent reduction in blood pressure after 4 hr upon peroral administration of 3 mg/kg dose in spontaneously hypertensive rats(SHR).; type: functional; conditions: route oral
[5] = tested on: Rattus norvegicus; assay: Antihypertensive activity was determined by percent reduction in blood pressure after 6 hr upon peroral administration of 5 mg/kg dose in spontaneously hypertensive rats(SHR).; type: functional; conditions: route oral
[6] = tested on: Rattus norvegicus; assay: Antihypertensive activity was determined by percent reduction in blood pressure after 6 hr upon peroral administration of 5 mg/kg dose in spontaneously hypertensive rats(SHR); not significant because of blood pressure falls below 10%; type: functional; conditions: route oral
[7] = tested on: Rattus norvegicus; assay: Antihypertensive activity was determined by percent reduction in blood pressure after 1 hr upon peroral administration of 5 mg/kg dose in spontaneously hypertensive rats(SHR); not significant because of blood pressure falls below 10%; type: functional; conditions: route oral
[8] = biological target: T1, Adrenergic receptor alpha-2 (Rattus norvegicus); assay: Percent displacement of [3H]clonidine to alpha-2-adrenoceptor was determined in rat brain homogenates at 10E-6 M; type: tissue-based

Compound	Displacement [2]	Ki [3] [nM]	Displacement [8] [%]	Reduction [1] [%]	Reduction [4] [%]	Reduction [5] [%]	Reduction [6] [%]	Reduction [7] [%]
COc1cc2nc(N3CCN(c4ccncn4)CC3)nc(N)c2cc1OC	inactive	0.27	–	21	12	–	–	–
CCCOc1cc(N2CCN(c3nc(N)c4cc(OC)c(OC)cc4n3)CC2)ncn1	inactive	0.36	–	39	–	22	–	–
COc1cc2nc(N3CCN(C(=O)c4ccco4)CC3)nc(N)c2cc1OC [PRAZOSIN]	–	–	–	33	–	29	–	–
COc1cc2nc(N3CCN(c4cnccn4)CC3)nc(N)c2cc1OC	inactive	0.18	–	–	–	–	8	7
COc1cc2nc(N3CCN(c4cc(N(C)C)ncn4)CC3)nc(N)c2cc1OC	–	–	–	–	–	18	–	8
COc1cc2nc(N3CCN(c4ccc(OC(C)C)nn4)CC3)nc(N)c2cc1OC	inactive	0.29	–	39	33	–	–	–
COc1cc2nc(N3CCN(c4cccnn4)CC3)nc(N)c2cc1OC	inactive	0.4	–	22	20	–	–	–
COc1cc(N2CCN(c3nc(N)c4cc(OC)c(OC)cc4n3)CC2)nc(OC)n1	–	0.16	54.2	22	–	20	–	–
CCCOc1ccnc(N2CCN(c3nc(N)c4cc(OC)c(OC)cc4n3)CC2)n1	inactive	0.32	–	34	–	22	–	–
COc1cc2nc(N3CCN(c4cc(OC(C)C)ncn4)CC3)nc(N)c2cc1OC	inactive	0.18	–	55	–	49	–	–
COc1ccnc(N2CCN(c3nc(N)c4cc(OC)c(OC)cc4n3)CC2)n1	inactive	0.19	–	15	–	14	–	–
COc1nc(OC)nc(N2CCN(c3nc(N)c4cc(OC)c(OC)cc4n3)CC2)n1	inactive	0.08	–	15	–	22	–	–
COc1cc2nc(N3CCN(c4nc(Oc5ccccc5)nc(Oc5ccccc5)n4)CC3)nc(N)c2cc1OC	inactive	0.87	–	–	–	–	8	9

More lines, main results first:

Displacement [2]	Ki [3] [nM]	Displacement [8] [%]	Compound	Reduction [1] [%]	Reduction [4] [%]	Reduction [5] [%]	Reduction [6] [%]	Reduction [7] [%]
inactive	0.31	–	COc1cc2nc(N3CCN(c4ccnc(N5CCOCC5)n4)CC3)nc(N)c2cc1OC	16	43	–	–	–
inactive	0.24	–	COc1cc2nc(N3CCN(c4ccnc(Oc5ccccc5)n4)CC3)nc(N)c2cc1OC	19	–	24	–	–
inactive	0.26	–	COc1cc2nc(N3CCN(c4ncccn4)CC3)nc(N)c2cc1OC	40	–	28	–	–
inactive	0.27	–	COc1cc2nc(N3CCN(c4nccc(N(C)C)n4)CC3)nc(N)c2cc1OC	–	–	13	–	7
inactive	1.66	–	COc1cc2nc(N3CCN(c4nccc(-c5ccccc5)n4)CC3)nc(N)c2cc1OC	17	–	17	–	–
inactive	0.47	–	COc1cc2nc(N3CCN(c4nc(N)nc(N)n4)CC3)nc(N)c2cc1OC	–	–	12	–	2
inactive	0.92	–	COc1cc2nc(N3CCN(c4nccc(C)n4)CC3)nc(N)c2cc1OC	28	–	15	–	–
